According to patent US20210277102A1, “COMPOSITIONS AND METHODS FOR TREATING A TUMOR SUPPRESSOR DEFICIENT CANCER” (BETH ISRAEL DEACONESS MEDICAL CENTER, INC., priority 2016, published 2021):
Entries after “also recorded” stand apart in the source; their conditions may differ.

Test system: Pten^pc−/−; Trp53^pc−/− prostate tumors
Assay: In vivo drug and antibody treatment of Pten^pc−/−; Trp53^pc−/− mice (MRI, flow cytometry, histology)
Parameters: species or system mouse
Experimental: Mice were allocated at random to experimental groups and studies were performed in an unblended manner. For treatment with the CXCR2 antagonist, SB225002 (Cayman Chemical #13336) was dissolved in DMSO (10 mg/ml) and diluted in vehicle (0.9% NaCl, 0.3% Tween 80) for in vivo administration. Mice (4 months of age) were treated daily for 10 days by intraperitoneal injection (5 mg/kg) and prostate tumor tissue (anterior lobes) was subjected to Flow Cytometry and histological analysis. For MRI analysis, mice (4 months of age) were treated daily for 21 days (Pten^pc-/-; Zbtb7a^pc-/-), for 14 days (Pten^pc-/-; Trp53^pc-/-) or for 14 days (Pten^pc-/-; Pml^pc-/-) by intraperitoneal injection (5 mg/kg). For depletion of Gr-1+/CD11b+ cells, Ly6G-depletion antibody (1A8, BioXcell) and control Rat IgG2a antibody (BioXcell) were diluted in phosphate-buffered saline (PBS) for in vivo administration. Mice (4 months of age) were treated every other day for 10 days by intraperitoneal injection (200-300 μg/mouse). InVivoMAb anti-mouse Ly6G/Ly6C (Gr-1) antibody, clone RB6-8C5 (BE0075, BioXcell), and control Rat IgG2b antibody (BE0090, BioXcell) were diluted in PBS and Pten^pc-/-; Trp53^pc-/- mice were treated every other day for 14 days by intraperitoneal injection (200 μg/mouse). For neutralization of CXCL5, anti-Mouse CXCL5 antibody (Leinco Technologies) and control Rat IgG2a antibody (BioXcell) were diluted in PBS and injected every other day for 21 days by intraperitoneal injection (20 μg/mouse). Tumor volume quantification was performed by using VivoQuant and Image J software. All mouse prostate MRI imaging analysis was performed at Small Animal Imaging Core at BIDMC and acquired on an […] Model M2 1T tabletop scanner. For western blotting, cell lysates were prepared by homogenizing tumor tissue with NP40 Buffer (Boston Bioproducts) supplemented with protease (Roche) and HALT phosphatase inhibitor cocktails (Thermo Scientific) and subsequently subjected to SDS-Gel separation (Invitrogen) and western blotting. The following antibodies were used for western blotting: […] (AC-74; Sigma), CXCL5 (R & D Systems #AF433), pIRAK4 (Cell Signaling Technology #11927S), IRAK4 (Cell Signaling Technology #4363P), IκBα (Cell Signaling Technology #4812S), Zbtb7a (hamster anti-Zbtb7a clone 13E9), PTEN (Cell Signaling Technology #9559S), p53 (Cell Signaling Technology #2524S), p21 (Santa Cruz Biotechnology sc-6246) and HSP90 (BD Biosciences BDB610419). Western blots were quantified using Image J software. For immunohistochemistry, tissues and organoids were fixed in 4% paraformaldehyde and embedded in paraffin in accordance with standard procedures. Embedding and hematoxylin and eosin staining of sections were performed by the Histology Core at BIDMC and analyzed by a pathologist. […]

[1] = Trp53^pc−/− prostate tumors after treatment

In the case of `O=C(Nc1ccc([N+](=O)[O-])cc1O)Nc1ccccc1Br` [SB225002], the “tumor growth (tumor volume by MRI)” value (Trp53^pc−/− mice, intraperitoneal injection, vs vehicle or control IgG) was “significantly suppressed the tumor growth; also recorded: significant inhibition of tumor growth”, the “Treg cells (CD4+/FoxP3+) in tumor (flow cytometry)” value [1] was “less Foxp3+ cells; also recorded: less Treg cells” and the “intra-tumoral Gr-1+/CD11b+ cells (flow cytometry)” value [1] was “decrease of Gr-1+/CD11b+ cells”. For the same compound, the “tumor burden (histological analysis)” value (Trp53^pc−/− tumors, anterior prostate lobes) was “reduced tumor burden; also recorded: significantly diminished tumor involvement”.
